ChEMBL document CHEMBL1201862, “PubChem BioAssay data set” (2004)
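Following 48 hours of exposure in 96-well plates, responses at five concentrations were used to interpolate endpoints linearly. Here, GI50 denotes the concentration required for 50% inhibition of growth.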 Calls of active or inactive are those of the source. Rule as the data show it: active = GI50 up to about 1.1 µM and inactive = higher.

What was measured:
Assay in all cases: NCI anticancer screen, dose series, 48 h
EKVX = tested on: EKVX
A549 = tested on: A549
SNB-19 = tested on: SNB-19
OVCAR-4 = tested on: OVCAR-4
NCI-H460 = tested on: NCI-H460
NCI-H522 = tested on: NCI-H522
MDA-MB-435 = tested on: MDA-MB-435
KM12 = tested on: KM12
MCF7 = tested on: MCF7
MOLT-4 = tested on: MOLT-4
UO-31 = tested on: UO-31
MDA-N = tested on: MDA-N
M14 = tested on: M14
PC-3 = tested on: PC-3
HL-60 = tested on: HL-60
HOP-62 = tested on: HOP-62
SK-MEL-5 = tested on: SK-MEL-5
HCC 2998 = tested on: HCC 2998
ACHN = tested on: ACHN
HT-29 = tested on: HT-29

Measured: GI50

Cc1cccc2c1CC(C1OC(=O)c3c(C)cccc31)C2=O (stereo not given)
inactive: EKVX > 100 µM | A549 > 100 µM | SNB-19 > 100 µM | OVCAR-4 > 100 µM | NCI-H460 > 100 µM | NCI-H522 15.7 µM | MDA-MB-435 > 100 µM | KM12 > 100 µM | MCF7 > 100 µM | MOLT-4 > 100 µM | UO-31 > 100 µM | MDA-N > 100 µM | M14 > 100 µM | PC-3 > 100 µM | HL-60 > 100 µM | HOP-62 > 100 µM | SK-MEL-5 > 100 µM | HCC 2998 > 100 µM | ACHN > 100 µM | HT-29 > 100 µM

COc1ccc(C(O)CNC(=O)c2ccccc2)cc1 (stereo not given)
inactive: EKVX > 100 µM | A549 > 100 µM | SNB-19 > 100 µM | OVCAR-4 > 100 µM | NCI-H460 > 100 µM | NCI-H522 > 100 µM | MDA-MB-435 > 100 µM | KM12 > 100 µM | MCF7 > 100 µM | MOLT-4 > 100 µM | MDA-N > 100 µM | M14 > 100 µM | PC-3 > 100 µM | HL-60 > 100 µM | HOP-62 > 100 µM | SK-MEL-5 > 100 µM | HCC 2998 > 100 µM | ACHN > 100 µM | HT-29 > 100 µM

Cc1ccc(S(=O)(=O)NNC2(NS(=O)(=O)c3ccc(Cl)cc3)C(Cl)=C(Cl)C(=O)c3ccccc32)cc1 (stereo not given)
inactive: EKVX 15.5 µM | A549 16.9 µM | SNB-19 16.3 µM | OVCAR-4 16.1 µM | NCI-H460 17.9 µM | NCI-H522 21.7 µM | MDA-MB-435 18.8 µM | KM12 17.3 µM | MCF7 16.4 µM | MOLT-4 25.6 µM | UO-31 26.8 µM | MDA-N 17.4 µM | M14 19 µM | PC-3 16.7 µM | HL-60 14.4 µM | HOP-62 21.3 µM | SK-MEL-5 15.2 µM | HCC 2998 18.5 µM | ACHN 16.1 µM | HT-29 19.1 µM

Cc1cc2c(cc1Cl)Sc1nnc(Nc3ccccc3)n1S2(=O)=O
inactive: EKVX 11.7 µM | A549 12.1 µM | OVCAR-4 6.89 µM | NCI-H460 8.36 µM | NCI-H522 2.93 µM | MDA-MB-435 5.01 µM | KM12 12 µM | MCF7 8.02 µM | MOLT-4 3.07 µM | UO-31 13.4 µM | MDA-N 6.05 µM | M14 14.1 µM | PC-3 5.7 µM | HL-60 1.98 µM | HOP-62 3.64 µM | SK-MEL-5 11.7 µM | HCC 2998 3.96 µM | ACHN 12.2 µM | HT-29 23.4 µM

O=C1CC(c2ccccc2)NCCCCN2CC(CN1)C(C(O)c1ccccc1)C2=O (stereo not given)
inactive: EKVX > 100 µM | A549 > 100 µM | SNB-19 > 100 µM | OVCAR-4 > 100 µM | NCI-H460 > 100 µM | NCI-H522 > 100 µM | MDA-MB-435 > 100 µM | KM12 > 100 µM | MCF7 > 100 µM | MOLT-4 > 100 µM | UO-31 > 100 µM | MDA-N > 100 µM | M14 > 100 µM | PC-3 > 100 µM | HL-60 > 100 µM | HOP-62 > 100 µM | SK-MEL-5 > 100 µM | HCC 2998 > 100 µM | ACHN > 100 µM | HT-29 > 100 µM

CCOC(=O)C(=CNc1ccc(N(C2=NCC(C)S2)c2ccc(F)c(Cl)c2)cc1)C(=O)OCC (stereo not given)
inactive: EKVX 19.5 µM | A549 27 µM | SNB-19 21.8 µM | OVCAR-4 24.8 µM | NCI-H460 23.6 µM | NCI-H522 15.7 µM | MDA-MB-435 24.1 µM | KM12 18.7 µM | MCF7 12.8 µM | MOLT-4 19.1 µM | UO-31 18.1 µM | MDA-N 21.2 µM | M14 18.9 µM | PC-3 22.4 µM | HL-60 24.7 µM | HOP-62 21.1 µM | SK-MEL-5 18.7 µM | HCC 2998 15.2 µM | ACHN 18.5 µM | HT-29 18.1 µM

c1ccc(-c2cnc(-c3ccc(-c4ncc(-c5ccccc5)o4)cc3)o2)cc1
inactive: EKVX > 100 µM | A549 > 100 µM | SNB-19 > 100 µM | OVCAR-4 > 100 µM | NCI-H460 > 100 µM | NCI-H522 > 100 µM | MDA-MB-435 > 100 µM | KM12 > 100 µM | MCF7 > 100 µM | MOLT-4 > 100 µM | UO-31 > 100 µM | MDA-N > 100 µM | M14 > 100 µM | PC-3 > 100 µM | HL-60 > 100 µM | HOP-62 > 100 µM | SK-MEL-5 > 100 µM | HCC 2998 > 100 µM | ACHN > 100 µM | HT-29 > 100 µM

CCOC(=O)c1nc2cc(F)c(N3CCOCC3)cc2[nH]c1=O
inactive: EKVX 13.9 µM | A549 > 100 µM | SNB-19 > 100 µM | OVCAR-4 > 100 µM | NCI-H460 > 100 µM | NCI-H522 76 µM | MDA-MB-435 > 100 µM | KM12 > 100 µM | MCF7 > 100 µM | MOLT-4 > 100 µM | UO-31 65.3 µM | MDA-N > 100 µM | M14 > 100 µM | PC-3 > 100 µM | HL-60 47.5 µM | HOP-62 > 100 µM | SK-MEL-5 > 100 µM | HCC 2998 > 100 µM | ACHN > 100 µM | HT-29 > 100 µM

CN1C(=O)c2c(ccc3c2OCO3)C2C(O)Cc3cc4c(cc3C21)OCO4 (stereo not given)
inactive: EKVX 3.28 µM | A549 5.96 µM | SNB-19 3.21 µM | OVCAR-4 > 100 µM | NCI-H460 3.4 µM | NCI-H522 2.87 µM | MDA-MB-435 1.61 µM | KM12 3.15 µM | MCF7 7.5 µM | MOLT-4 4.04 µM | UO-31 6.37 µM | MDA-N 1.91 µM | M14 5.78 µM | PC-3 2.58 µM | HL-60 2.4 µM | SK-MEL-5 5.51 µM | HCC 2998 4.06 µM | ACHN 7.21 µM | HT-29 3.3 µM

CCC(C)N1CN(c2ccccc2)C2(CCN(CC3COc4ccccc4O3)CC2)C1=O (stereo not given)
inactive: EKVX 14.9 µM | A549 28.7 µM | SNB-19 23.7 µM | NCI-H522 22.8 µM | MDA-MB-435 19.2 µM | KM12 18.1 µM | MCF7 18.9 µM | MOLT-4 16.1 µM | UO-31 10.8 µM | MDA-N 25.6 µM | M14 20.2 µM | PC-3 26.6 µM | HL-60 14.4 µM | HOP-62 19.4 µM | SK-MEL-5 14.7 µM | HCC 2998 18.2 µM | ACHN 33.5 µM | HT-29 13.1 µM
